Experimental data from patent publication US8557872B2, “Compounds, isomer thereof, or pharmaceutically acceptable salts thereof as vanilloid receptor antagonist; and pharmaceutical compositions containing the same” (Amorepacific Corporation, priority 2008, dated 2013).
Read-outs that look alike come from different tables or passages of the source. Values belong to the molecule of their own block, whether it stands above or below them.

Experiments:
[1] = PK study in rats, single oral administration; assay type: in vivo, rat; set-up: AUC: concentration or dose not given beside the values; conditions: for Cmax / AUC / Tmax / half-life: rat, single oral administration, plasma
Protocol: Pharmacokinetics of compounds in rats were analyzed using the following experiment. Rats were fasted overnight prior to administration and until approximately 4 hours after administration. Rats were given a single oral administration of compound at same dose. Administration volume was 10 ml/kg. Blood samples were collected from the retro-orbital sinus at various times over the following 7 hrs. Immediately after each collection, plasmas were separated from blood cells by centrifugation and stored at −20° C. until the analysis was performed. The plasma samples were analyzed using a reverse phase high-performance chromatography (HPLC) method.

vanilloid receptor = molecular target: T1, vanilloid receptor (Rattus norvegicus, UniProt O35433); assay: 45Ca influx test (calcium uptake) in primary cultured DRG neurons, capsaicin 0.5 μM; assay type: cell-based
T1 construct: DRG nerve cells from the primary culture of 2 days were equilibrated by washing 4 times; endogenous in cells; host or cells: primary culture of dorsal root ganglion neurons from neonatal SD rats
T1 sequence (O35433 whole entry): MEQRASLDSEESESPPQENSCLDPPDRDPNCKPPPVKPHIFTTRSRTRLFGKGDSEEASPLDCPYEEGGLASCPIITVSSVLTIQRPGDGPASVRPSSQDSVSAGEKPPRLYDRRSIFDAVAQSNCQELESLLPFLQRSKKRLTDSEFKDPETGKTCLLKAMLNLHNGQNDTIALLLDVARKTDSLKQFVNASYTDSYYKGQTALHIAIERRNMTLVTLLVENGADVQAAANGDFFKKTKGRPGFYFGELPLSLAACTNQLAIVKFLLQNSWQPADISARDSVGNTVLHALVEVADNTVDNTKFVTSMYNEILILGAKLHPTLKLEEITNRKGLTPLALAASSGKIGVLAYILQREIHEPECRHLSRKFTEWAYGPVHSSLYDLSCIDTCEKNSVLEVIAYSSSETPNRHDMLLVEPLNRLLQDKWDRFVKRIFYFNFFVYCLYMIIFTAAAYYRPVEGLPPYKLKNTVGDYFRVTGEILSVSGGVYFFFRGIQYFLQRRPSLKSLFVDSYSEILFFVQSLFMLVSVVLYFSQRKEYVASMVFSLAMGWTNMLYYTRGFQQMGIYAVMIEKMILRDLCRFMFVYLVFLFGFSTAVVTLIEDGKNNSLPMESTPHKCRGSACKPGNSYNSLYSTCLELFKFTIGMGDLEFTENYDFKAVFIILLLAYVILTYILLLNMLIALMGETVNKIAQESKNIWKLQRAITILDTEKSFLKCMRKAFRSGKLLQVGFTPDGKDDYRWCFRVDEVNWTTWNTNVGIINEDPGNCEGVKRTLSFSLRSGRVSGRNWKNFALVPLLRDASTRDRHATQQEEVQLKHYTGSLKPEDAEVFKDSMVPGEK
Protocol: 1) Separation of Spinal Dorsal Root Ganglia (DRG) in Newborn Rats and Primary Culture Thereof
Neonatal (2-3 day old or younger than 2-3 day old) SD rats were put in ice for 5 minutes to anesthetize and disinfected with 70% ethanol. […] The DRG were incubated sequentially at 37° C. for 30 mins in 200 U/ml collagenase and 2.5 mg/ml trypsin, separately. The ganglia were washed twice with DME/F12 medium supplemented with 10% horse serum, triturated through a fire-polished Pasteur pipette, filtered through Nitex 80 membrane to obtain single cell suspension and the suspension was washed once more. This was subjected to centrifugation, then resuspended in cell culture medium at certain level of cell density. As the cell culture medium, DME/F12 medium supplemented with 10% horse serum was diluted with identical medium conditioned by C6 glioma cells 2 days on a confluent monolayer (1:1), and NGF (Nerve Growth Factor) was added to adjust 200 ng/ml as final concentration. After the cells were grown 2 days in medium where cytosine arabinoside (Ara-C, 100 μM) was added to kill dividing nonneuronal cells, medium was changed to one without Ara-C. The resuspended cells were plated at a density of 1500-2000 neurons/well onto Terasaki plates previously coated with 10 μg/ml poly-D-ornithine.
2) ^45Ca Influx Experiments
DRG nerve cells from the primary culture of 2 days were equilibrated by washing 4 times with HEPES (10 mM, pH 7.4)-buffered Ca^2+, Mg^2+-free HBSS (H-HBSS). The solution in each well was removed from the individual well. Medium containing the test compound plus capsaicin (final concentration 0.5 μM) and ^45Ca (final concentration 10 μCi/ml) in H-HBSS was added to each well and incubated at room temperature for 10 mins. Terasaki plates were washed five times with H-HBSS and dried at room temperature. To each well, 0.3% SDS (10 μl) was added to elute ^45Ca. After the addition of scintillation cocktail of into each well, the amount of ^45Ca influx into neuron was measured by counting radioactivity.

[2] = Table 3, detection limit 0.100 mcg/ml
[3] = Table 3, comparative compounds having tert-butyl-phenyl, read-out: IC50
[4] = Table 4, detection limit 0.100 mcg/ml
[5] = comparison with comparative compounds F and G, read-out: IC50 value
[6] = Table 2, read-out: T½ (converted)
[7] = rat DRG neurons, capsaicin 0.5 μM, 45Ca, read-out: Antagonist Calcium Uptake Test (IC50)

Cmax [1, 2]: < 100 ng/mL
Compound: C=Cc1cc(CNC(=O)/C=C/c2ccc(C(C)(C)C)cc2)cc(F)c1NS(C)(=O)=O [Comp Cpd A, reference compound]

AUC ([1]; Table 3): 72 ng·h/mL
Tmax ([1]; Table 3): 0.5 h
Cmax [1, 2]: 69 ng/mL
half-life ([1]; Table 3, read-out: T½ (converted)): 0.462 h
Compound: CC(C)(C)c1ccc(/C=C/C(=O)NCc2cc(F)c(NS(C)(=O)=O)c(F)c2)cc1 [Comp Cpd B, reference compound]

Cmax [1, 2]: < 100 ng/mL
Compound: C=Cc1cc(CNC(=O)/C=C/c2ccc(C(C)(C)C)cc2NC(C)C)cc(F)c1NS(C)(=O)=O [Comp Cpd C, reference compound]

Cmax [1, 2]: < 100 ng/mL
IC50 (vanilloid receptor; [3]): 85 nM
Compound: CCCNc1cc(C(C)(C)C)ccc1/C=C/C(=O)NCc1cc(F)c(NS(C)(=O)=O)c(F)c1 [Comp Cpd D, reference compound]

Cmax [1, 2]: < 100 ng/mL
IC50 (vanilloid receptor; [3]): 2300 nM
Compound: CCCc1cc(C(C)(C)C)ccc1/C=C/C(=O)N[C@H](C)c1cc(F)c(NS(C)(=O)=O)c(F)c1 [Comp Cpd E, reference compound]

AUC ([1]; Table 4): 40100 ng·h/mL
Tmax ([1]; Table 4): 2 h
Cmax [1, 4]: 5000 ng/mL
half-life ([1]; Table 4, read-out: T1/2 (converted)): 4.59 h
IC50 (vanilloid receptor; [5]): 570 nM
Compound: C=Cc1cc(CNC(=O)/C=C/c2ccc(C(F)(F)F)cc2)ccc1NS(C)(=O)=O [Comp Cpd F, reference compound]

PK properties (in terms of T max and AUC) ([1]; oral, in words): poor PK-properties
Cmax [1, 4]: < 100 ng/mL
IC50 (vanilloid receptor; Table 4, comparative compounds having CF3-phenyl, read-out: IC50): > 10000 nM
IC50 (vanilloid receptor; [5]): > 10000 nM
Compound: C[C@@H](NC(=O)/C=C/c1ccc(C(F)(F)F)cc1)c1cc(F)c(NS(C)(=O)=O)c(F)c1 [Comp Cpd G, reference compound]

AUC ([1]; Table 2): 1940 ng·h/mL
Cmax ([1]; Table 2): 466 ng/mL
Tmax ([1]; Table 2): 3.5 h
half-life [1, 6]: 1.4 h
IC50 (vanilloid receptor; [7]): 19 nM
Compound: CCCNc1cc(C(F)(F)F)ccc1/C=C/C(=O)N[C@H](C)c1cc(F)c(NS(C)(=O)=O)c(F)c1 [Example 1, (R)—N-[1-(3,5-Difluoro-4-methanesulfonylamino-phenyl)-ethyl]-3-(2-propylamino-4-trifluoromethyl-phenyl)-acrylamide]

AUC ([1]; Table 2): 7150 ng·h/mL
Cmax ([1]; Table 2): 1420 ng/mL
Tmax ([1]; Table 2): 2 h
half-life [1, 6]: 3.55 h
IC50 (vanilloid receptor; [7]): 170 nM
Compound: CCCNc1cc(C(F)(F)F)ccc1/C=C/C(=O)NCc1cc(F)c(NS(C)(=O)=O)c(F)c1 [Example 2, N-(3,5-Difluoro-4-methanesulfonylamino-benzyl)-3-(2-propylamino-4-trifluoromethyl-phenyl)-acrylamide]

IC50 (vanilloid receptor; [7]): 92 nM
Compound: C#Cc1cc(CNC(=O)/C=C/c2ccc(C(F)(F)F)cc2CCC)cc(F)c1NS(C)(=O)=O [Example 35, N-(3-Ethynyl-5-fluoro-4-methanesulfonylamino-benzyl)-3-(2-propyl-4-trifluoromethyl-phenyl)-acrylamide]

IC50 (vanilloid receptor; [7]): 46 nM
Compound: CCCCc1cc(C(F)(F)F)ccc1/C=C/C(=O)N[C@H](C)c1ccc(NS(C)(=O)=O)c(F)c1 [Example 36, (R)-3-(2-Butyl-4-trifluoromethyl-phenyl)-N-[1-(3-fluoro-4-methanesulfonylamino-phenyl)-ethyl]-acrylamide]

Compound: CCC(C)Oc1cc(C(F)(F)F)ccc1/C=C/C(=O)N[C@H](C)c1cc(F)c(NS(C)(=O)=O)c(F)c1 (stereo partly drawn) [Example 39, (R)-3-(2-sec-Butoxy-4-trifluoromethyl-phenyl)-N-[1-(3,5-difluoro-4-methanesulfonylamino-phenyl)-ethyl]-acrylamide]
IC50 (vanilloid receptor; [7]): 22 nM

Compound: CCC(C)Oc1cc(F)ccc1/C=C/C(=O)N[C@H](C)c1cc(F)c(NS(C)(=O)=O)c(F)c1 (stereo partly drawn) [Example 40, (R)-3-(2-sec-Butoxy-4-fluoro-phenyl)-N-[1-(3,5-difluoro-4-methanesulfonylamino-phenyl)-ethyl]-acrylamide]
IC50 (vanilloid receptor; [7]): 100 nM

Compound: CCC(C)Oc1cc(F)ccc1/C=C/C(=O)NCc1cc(F)c(NS(C)(=O)=O)c(F)c1 (stereo not drawn) [Example 41, 3-(2-sec-Butoxy-4-fluoro-phenyl)-N-(3,5-difluoro-4-methanesulfonylamino-benzyl)-acrylamide]
IC50 (vanilloid receptor; [7]): 550 nM

IC50 (vanilloid receptor; [7]): 110 nM
Compound: CCNc1cc(F)ccc1/C=C/C(=O)N[C@H](C)c1cc(F)c(NS(C)(=O)=O)c(F)c1 [Example 42, (R)—N-[1-(3,5-Difluoro-4-methanesulfonylamino-phenyl)-ethyl]-3-(2-ethylamino-4-fluoro-phenyl)-acrylamide]

IC50 (vanilloid receptor; [7]): 320 nM
Compound: CCNc1cc(F)ccc1/C=C/C(=O)NCc1cc(F)c(NS(C)(=O)=O)c(F)c1 [Example 43, N-(3,5-Difluoro-4-methanesulfonylaminobenzyl)-3-(4-fluoro-2-ethylaminophenyl)acrylamide]

IC50 (vanilloid receptor; [7]): 91 nM
Compound: CCCc1cc(C(F)(F)F)ccc1/C=C/C(=O)N[C@H](C)c1ccc(NS(C)(=O)=O)c(F)c1 [Example 44]

IC50 (vanilloid receptor; [7]): 65 nM
Compound: CCCCNc1cc(F)ccc1/C=C/C(=O)N[C@H](C)c1cc(F)c(NS(C)(=O)=O)c(F)c1 [Example 45, (R)-3-(2-Butylamino-4-fluoro-phenyl)-N-[1-(3,5-difluoro-4-methanesulfonylamino-phenyl)-ethyl]-acrylamide]

IC50 (vanilloid receptor; [7]): 180 nM
Compound: CCCCNc1cc(F)ccc1/C=C/C(=O)NCc1cc(F)c(NS(C)(=O)=O)c(F)c1 [Example 46, 3-(2-Butylamino-4-fluoro-phenyl)-N-(3,5-difluoro-4-methanesulfonylamino-benzyl)-acrylamide]

IC50 (vanilloid receptor; [7]): 94 nM
Compound: CC(C)Cc1cc(C(F)(F)F)ccc1/C=C/C(=O)N[C@H](C)c1cc(F)c(NS(C)(=O)=O)c(F)c1 [Example 47, (R)—N-[1-(3,5-Difluoro-4-methanesulfonylamino-phenyl)-ethyl]-3-(2-isobutyl-4-trifluoromethyl-phenyl)-acrylamide]

IC50 (vanilloid receptor; [7]): 530 nM
Compound: CCCc1cc(C(F)(F)F)ccc1/C=C(\C)C(=O)N[C@H](C)c1cc(F)c(NS(C)(=O)=O)c(F)c1 [Example 48, (R)—N-[1-(3,5-Difluoro-4-methanesulfonylamino-phenyl)-ethyl]-2-methyl-3-(2-propyl-4-trifluoromethyl-phenyl)-acrylamide]

IC50 (vanilloid receptor; [7]): 1400 nM
Compound: CCCc1cc(C(F)(F)F)ccc1/C=C(\C)C(=O)N[C@H](C)c1ccc(NS(C)(=O)=O)c(F)c1 [Example 49, (R)—N-[1-(3-Fluoro-4-methanesulfonylamino-phenyl)-ethyl]-2-methyl-3-(2-propyl-4-trifluoromethyl-phenyl)-acrylamide]

IC50 (vanilloid receptor; [7]): 210 nM
Compound: C[C@@H](NC(=O)/C=C/c1ccc(C(F)(F)F)cc1OCC1CCCCC1)c1cc(F)c(NS(C)(=O)=O)c(F)c1 [Example 50, (R)-3-(2-Cyclohexylmethoxy-4-trifluoromethyl-phenyl)-N-[1-(3,5-difluoro-4-methanesulfonylamino-phenyl)-ethyl]-acrylamide]

IC50 (vanilloid receptor; [7]): 3300 nM
Compound: CS(=O)(=O)Nc1c(F)cc(CNC(=O)/C=C/c2ccc(C(F)(F)F)cc2N2CCCCC2)cc1F [Example 51, N-(3,5-Difluoro-4-methanesulfonylamino-benzyl)-3-(2-piperidin-1-yl-4-trifluoromethyl-phenyl)-acrylamide]

IC50 (vanilloid receptor; [7]): 340 nM
Compound: C[C@@H](NC(=O)/C=C/c1ccc(C(F)(F)F)cc1N1CCCCC1)c1cc(F)c(NS(C)(=O)=O)c(F)c1 [Example 52]

IC50 (vanilloid receptor; [7]): 170 nM
Compound: CCCc1cc(F)ccc1/C=C/C(=O)N[C@H](C)c1cc(F)c(NS(C)(=O)=O)c(F)c1 [Example 53, (R)—N-[1-(3,5-Difluoro-4-methanesulfonylamino-phenyl)-ethyl]-3-(4-fluoro-2-propyl-phenyl)-acrylamide]

IC50 (vanilloid receptor; [7]): 190 nM
Compound: CCCNc1cc(C(F)(F)F)ccc1CCC(=O)N[C@H](C)c1cc(F)c(NS(C)(=O)=O)c(F)c1 [Example 55, (R)—N-[1-(3,5-difluoro-4-methanesulfonylamino-phenyl)-ethyl]-3-(2-propylamino-4-trifluoromethyl-phenyl)-propionamide]

IC50 (vanilloid receptor; [7]): 350 nM
Compound: CCCNc1cc(C(F)(F)F)ccc1CCC(=O)NCc1cc(F)c(NS(C)(=O)=O)c(F)c1 [Example 56, N-(3,5-difluoro-4-methanesulfonylamino-benzyl)-3-(2-propylamino-4-trifluoromethyl-phenyl)-propionamide]
